Assay results published in ChEMBL document CHEMBL4814041, “Anti-fibrotic effects of brevilin A in hepatic fibrosis via inhibiting the STAT3 signaling pathway” (Bioorg Med Chem Lett, 2021).
Values after ≈ are worked out from the molar mass of the structure shown. Active and inactive are the calls of the source. The calls are words filed in the database; no cut-off is given here.

Key:
LX-2 [1] = assay: Anti-fibrotic activity against human LX2 cells assessed as reduction in TGF-1beta-induced fibronectin mRNA expression at 0.25 to 1 ug/ml by qPCR analysis; assay type: functional, cell-based; conditions: dose 0.25-1 µg/ml
[2] = Anticancer activity against human nasopharyngeal carcinoma cells measured upto 72 hrs by MTT assay; assay type: functional; conditions: Nasopharyngeal carcinoma cell line
Influenza A virus = assay: Antiviral activity against influenza A virus infected in MDCK cells assessed as reduction in plaque number measured after 48 to 72 hrs; assay type: functional, organism-based
LX-2 [3] = assay: Anti-fibrotic activity against human LX2 cells assessed as reduction in TGF-1beta-induced collagen mRNA expression at 0.25 to 1 ug/ml by qPCR analysis; assay type: functional, cell-based; conditions: dose 0.25-1 µg/ml
LX-2 [4] = assay: Anti-fibrotic activity against human LX2 cells assessed as reduction in TGF-1beta-induced alpha-SMA mRNA expression at 0.25 to 1 ug/ml by qPCR analysis; assay type: functional, cell-based; conditions: dose 0.25-1 µg/ml
[5] = target: Signal transducer and activator of transcription 3 (Homo sapiens) (UniProt P40763); assay: Inhibition of STAT3 in human LX2 cells assessed as reduction in TGF-1beta-induced CTGF expression at 0.25 to 1 ug/ml by Western blot analysis; assay type: cell-based; conditions: dose 0.25-1 µg/ml
Sequence of Signal transducer and activator of transcription 3 (Homo sapiens) (P40763 whole entry): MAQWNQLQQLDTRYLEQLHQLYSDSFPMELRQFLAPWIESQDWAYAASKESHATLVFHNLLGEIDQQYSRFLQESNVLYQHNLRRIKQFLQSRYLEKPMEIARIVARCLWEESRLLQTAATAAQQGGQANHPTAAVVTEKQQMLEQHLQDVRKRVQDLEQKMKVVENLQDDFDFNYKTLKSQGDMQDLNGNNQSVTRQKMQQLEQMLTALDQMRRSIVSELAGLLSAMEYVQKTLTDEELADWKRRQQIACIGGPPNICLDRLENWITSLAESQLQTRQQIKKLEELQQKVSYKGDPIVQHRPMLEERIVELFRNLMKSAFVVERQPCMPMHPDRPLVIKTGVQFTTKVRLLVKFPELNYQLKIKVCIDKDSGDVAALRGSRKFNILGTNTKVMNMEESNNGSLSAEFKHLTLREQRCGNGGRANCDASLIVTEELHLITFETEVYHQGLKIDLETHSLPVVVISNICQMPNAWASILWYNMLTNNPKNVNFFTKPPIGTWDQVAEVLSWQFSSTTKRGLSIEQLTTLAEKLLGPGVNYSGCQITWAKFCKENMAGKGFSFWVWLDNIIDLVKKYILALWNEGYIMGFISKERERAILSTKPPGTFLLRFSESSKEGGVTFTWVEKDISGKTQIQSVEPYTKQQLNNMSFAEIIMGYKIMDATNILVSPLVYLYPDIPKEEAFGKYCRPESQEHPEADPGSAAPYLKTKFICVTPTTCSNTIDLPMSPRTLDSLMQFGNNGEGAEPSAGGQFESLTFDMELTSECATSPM

[6] = target: Signal transducer and activator of transcription 3 (Homo sapiens) (UniProt P40763); assay: Inhibition of STAT3 in human LX2 cells assessed as reduction in TGF-1beta-induced STAT3 phosphorylation at 0.25 to 1 ug/ml by Western blot analysis; assay type: cell-based; conditions: dose 0.25-1 µg/ml

In the case of C/C=C(/C)C(=O)O[C@H]1[C@@H]2[C@H](C)C(=O)O[C@@H]2C[C@@H](C)[C@@H]2C=CC(=O)[C@]21C [BREVILIN A], the Activity (LX-2 [1]) is reported as “Active”, the IC50 [2] is reported as 3.46 mg/L (≈ 9.99 µM) and the EC50 (Influenza A virus) is reported as 1.02 mg/L (≈ 2.94 µM). The Activity (LX-2 [3]) was “Active”, the Activity (LX-2 [4]) was “Active” and the inhibition [5] was “Active”. For the same molecule, the inhibition [6] was “Active”.
